Source: PubChem BioAssay AID2060889 (Molecular Pharmacology Branch, DTP, NCI, 2025)

System: LG0567-F671-PDC complex spheroids viability
Assay: Anticancer human tumor LG0567-F671-PDC patient-derived lung adenocarcinoma cell line growth inhibition [RAS]
Conditions: for IC50: curve of first compound; for viability, T/C: stronger effect = lower value
Procedure, shortened: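 Tumour cells grown as complex spheroids with HUVEC endothelial cells and mesenchymal stem cells, treated with RAS pathway inhibitor combinations. Each agent spans half-log steps from near clinical Cmax, or 10 microM where Cmax is unknown.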
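Further: spheroids exposed to compound for seven days before readout.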
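Wherever IC50 is given: luminescence signal used as a proxy for viable cells.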

`C=CC(=O)N1CCN(c2nc(OCC3CCCN3C)nc3c(F)c(-c4nc(N)cc(C)c4C(F)(F)F)c(Cl)cc23)C(C)C1` (configuration not stated) + C#Cc1c(F)ccc2cc(O)cc(-c3ncc4c(N5CC6CCC(C5)N6)nc(OCC56CCCN5CC(F)C6)nc4c3F)c12 gave an IC50 (second compound 0.0316 µM) of under 3.16 nM, an IC50 (second compound 0.1 µM) of under 3.16 nM and an IC50 (second compound 0.316 µM) of under 3.16 nM. For the same molecule, the IC50 (second compound 1 µM) was under 3.16 nM, the IC50 (second compound 3.16 µM) was under 3.16 nM and the IC50 (second compound 10 µM) was under 3.16 nM. The viability, T/C (second compound 0.0316 µM, first compound 0.00316 µM) was 17.4%, the viability, T/C (second compound 0.0316 µM, first compound 0.01 µM) was 12.2% and the viability, T/C (second compound 0.0316 µM, first compound 0.0316 µM) was 11.1%. The viability, T/C (second compound 0.0316 µM, first compound 0.1 µM) was 12.7%, the viability, T/C (second compound 0.0316 µM, first compound 0.316 µM) was 12.4% and the viability, T/C (second compound 0.0316 µM, first compound 1 µM) was 11.7%. For the same molecule, the viability, T/C (second compound 0.1 µM, first compound 0.00316 µM) was 14%, the viability, T/C (second compound 0.1 µM, first compound 0.01 µM) was 12% and the viability, T/C (second compound 0.1 µM, first compound 0.0316 µM) was 9.61%. It also gave a viability, T/C (second compound 0.1 µM, first compound 0.1 µM) of 11.5%, a viability, T/C (second compound 0.1 µM, first compound 0.316 µM) of 11% and a viability, T/C (second compound 0.1 µM, first compound 1 µM) of 10.9%. The viability, T/C (second compound 0.316 µM, first compound 0.00316 µM) was 16.3%, the viability, T/C (second compound 0.316 µM, first compound 0.01 µM) was 15.7% and the viability, T/C (second compound 0.316 µM, first compound 0.0316 µM) was 11.2%. The viability, T/C (second compound 0.316 µM, first compound 0.1 µM) was 8.83%, the viability, T/C (second compound 0.316 µM, first compound 0.316 µM) was 13.8% and the viability, T/C (second compound 0.316 µM, first compound 1 µM) was 9.54%. For the same molecule, the viability, T/C (second compound 1 µM, first compound 0.00316 µM) was 20%, the viability, T/C (second compound 1 µM, first compound 0.01 µM) was 12.6% and the viability, T/C (second compound 1 µM, first compound 0.0316 µM) was 10.3%. The viability, T/C (second compound 1 µM, first compound 0.1 µM) was 8.88%, the viability, T/C (second compound 1 µM, first compound 0.316 µM) was 9.02% and the viability, T/C (second compound 1 µM, first compound 1 µM) was 8.65%. It also gave a viability, T/C (second compound 3.16 µM, first compound 0.00316 µM) of 14%, a viability, T/C (second compound 3.16 µM, first compound 0.01 µM) of 10.2% and a viability, T/C (second compound 3.16 µM, first compound 0.0316 µM) of 8.81%. For the same molecule, the viability, T/C (second compound 3.16 µM, first compound 0.1 µM) was 7.62%, the viability, T/C (second compound 3.16 µM, first compound 0.316 µM) was 9.35% and the viability, T/C (second compound 3.16 µM, first compound 1 µM) was 8.07%. The viability, T/C (second compound 10 µM, first compound 0.00316 µM) was 10.8%, the viability, T/C (second compound 10 µM, first compound 0.01 µM) was 8.76% and the viability, T/C (second compound 10 µM, first compound 0.0316 µM) was 8.93%. It also gave a viability, T/C (second compound 10 µM, first compound 0.1 µM) of 9.51%, a viability, T/C (second compound 10 µM, first compound 0.316 µM) of 9.18% and a viability, T/C (second compound 10 µM, first compound 1 µM) of 8.52%.
